What all share (details): 336 h, Table 3, post-emergence, 14±1 days post application
The subject of assay [1] is Amaranthus retroflexus (AMARE). Put plainly: Post-emergence glasshouse test, visual injury, AMARE. Type of assay: in vivo. On the procedure:
(§1) Seeds of a variety of test species are grown in a sandy loam soil mixture, Lolium multiflorum (LOLMU), Amaranthus retroflexus (AMARE), Echinochloa crus-gaffi (ECHCG), Veronica persica (VERPE), Glycine max (GLXMA), Oryza sativa (ORYSA), Zea mays (ZEAMX), spring wheat (TRZAS), Ipomoea hederacea (IPOHE), Ipomoea purpurea (PHBPU), Stellaria media (STEME), Solanum nigrum (SOLNI), Digitaria sanguinalis (DIGSA), Setaria italica (SETIT), Alopecurus myosuroides (ALOMY) and Avena fatua (AVEFA).
(§2) After sowing, at growth stage BBCH 12-14 (post-emergence), the plants are sprayed with an aqueous spray solution derived from the formulation of the technical active ingredient in acetone/water (50:50) solution containing 0.5% Tween 20 (polyoxyethlyene sorbitan monolaureate, CAS RN 9005-64-5). The test compounds are applied at the required concentration of active ingredient in g/ha. The test plants are then grown in a glasshouse under controlled environmental conditions and watered regularly as required. After 14±1 days post application (for post-emergence test), the test is evaluated by assessing the percentage damage caused to the plants in comparison with the untreated plots. The biological activities for post-emergence testing are shown below (Table 3 and Table 4) as a % visual injury.

For assay [2], the system named is Lolium multiflorum (LOLMU). Put plainly: Post-emergence glasshouse test, visual injury, LOLMU. Type of assay: in vivo. As for the experimental part:
as §1, §2

The subject of assay [3] is Veronica persica (VERPE). Put plainly: Post-emergence glasshouse test, visual injury, VERPE. Type of assay: in vivo. As for the experimental part:
as §1, §2

The test system of assay [4] is Echinochloa crus-gaffi (ECHCG). Put plainly: Post-emergence glasshouse test, visual injury, ECHCG. The class given is in vivo, Echinochloa crus-galli. As for the experimental part: as §1, §2

The source of these data is patent US20230329236A1, “HERBICIDAL PYRIMIDINE DERIVATIVES” (MoA Technology Limited, priority 2020, published 2023).

The term pest or weed control denotes how far the test organism was held down. `Cc1cc(-c2cnc(NCC3CCOCC3)nc2C(C)C)on1` [Compound 109]: the pest or weed control at 125 g/ha came out at 40% in assay [1], 0% in assay [2], 70% in assay [3] and 0% in assay [4].

Consider `C=COCCCNc1ncc(-c2cc(C)no2)c(C(C)(C)C)n1` [Compound 33], for which the pest or weed control at 500 g/ha in assay [1] was found to be 80%; in assay [2], 0%; in assay [3], 0%; in assay [4] it was 70%.

On to `CC(=O)N1CCN(c2ncc(-c3cc(C)no3)c(-c3ccncc3)n2)CC1` [Compound 59], for which the pest or weed control at 500 g/ha in assay [1] came out at 0%; in assay [2], 50%; in assay [3], 90%; in assay [4], 0%.

As to `Cc1cc(-c2cnc(N(C)C3CCCC3)nc2C(F)(F)F)on1` [Compound 112], the pest or weed control at 125 g/ha in assay [1] came out at 20%; in assay [2] it was 20%; in assay [3], 0%; in assay [4] it was 0%.

On to `Cc1ncc(-c2cnc(NC3CCCC3)nc2C(C)C)s1` [Compound 123], for which the pest or weed control at 62 g/ha amounted to 0% in assay [1], 0% in assay [2], 50% in assay [3] and 0% in assay [4].

On to `Cc1cc(-c2cnc(NCc3cccc(F)c3)nc2C(C)C)on1` [Compound 17], for which the pest or weed control at 1000 g/ha in assay [1] came to 100%; in assay [2], 0%; in assay [3] it was 100%; in assay [4] it was 80%.

With `Cc1cc(-c2cnc(NCCc3c(C)noc3C)nc2C(C)C)on1` [Compound 62], the pest or weed control at 500 g/ha in assay [1] was determined as 70%; in assay [2], 40%; in assay [3], 70%; in assay [4], 50%.

For the compound `COCCNc1ncc(-c2cc(C)no2)c(-c2ccc(C)o2)n1` [Compound 65], the pest or weed control at 500 g/ha was 60% in assay [1], 0% in assay [2], 0% in assay [3] and 30% in assay [4].

As to `Cc1cc(-c2cnc(NCC3CCC3)nc2C(C)C)on1` [Compound 87], the pest or weed control at 125 g/ha in assay [1] is 50%; in assay [2] it was 30%; in assay [3], 70%; in assay [4], 80%.

`Cc1cc(-c2cnc(N(C)C)nc2-c2ccc(C)o2)on1` [Compound 43]: the pest or weed control at 500 g/ha was determined as 50% in assay [1], 40% in assay [2], 0% in assay [3] and 60% in assay [4].

Take `Cc1cc(-c2cnc(N3CCCCC3)nc2C2CC2)on1` [Compound 31]: the pest or weed control at 500 g/ha in assay [1] stood at 70%; in assay [2], 0%; in assay [3], 0%; in assay [4], 30%.

Turning to `Cc1cc(-c2cnc(N)nc2C(F)(F)F)on1` [Compound 122], the pest or weed control at 125 g/ha worked out at 20% in assay [1], 0% in assay [2], 0% in assay [3] and 0% in assay [4].

Consider `Cc1cc(-c2cnc(NC3CCOCC3)nc2C(C)C)on1` [Compound 6], for which the pest or weed control at 125 g/ha in assay [1] is 60%; in assay [2] it was 50%; in assay [3], 90%; in assay [4], 90%. In addition, the pest or weed control at 250 g/ha in assay [1] was determined as 100%; in assay [2], 20%; in assay [3], 100%; in assay [4], 98%.

As for `Cc1cc(-c2cnc(N3CCN(c4ncccn4)CC3)nc2C(C)C)on1` [Compound 70], the pest or weed control at 500 g/ha in assay [1] was determined as 80%; in assay [2], 0%; in assay [3], 0%; in assay [4], 20%.

For the compound `Cc1cccc(CNc2ncc(-c3cc(C)no3)c(C(C)C)n2)c1` [Compound 99], the pest or weed control at 62 g/ha is 60% in assay [1], 30% in assay [2], 80% in assay [3] and 70% in assay [4].

As to `Cc1cc(-c2cnc(N3CCN(S(=O)(=O)N(C)C)CC3)nc2C2CC2)on1` [Compound 53], the pest or weed control at 500 g/ha in assay [1] was determined as 20%; in assay [2], 20%; in assay [3], 0%; in assay [4], 50%.

Consider `Cc1cc(-c2cnc(NCC3CCCO3)nc2-c2ccc(C)o2)on1` (stereo not drawn) [Compound 86], for which the pest or weed control at 1000 g/ha in assay [1] is 0%; in assay [2], 0%; in assay [3] it was 70%; in assay [4] it was 0%.

Consider `Cc1cc(-c2cnc(NC3CCC3)nc2C2CC2)on1` [Compound 12], for which the pest or weed control at 250 g/ha in assay [1] is 100%; in assay [2], 30%; in assay [3] it was 100%; in assay [4], 90%.

Consider `CCN1CCN(c2ncc(-c3cc(C)no3)c(C(C)C)n2)CC1` [Compound 63], for which the pest or weed control at 500 g/ha in assay [1] worked out at 70%; in assay [2], 30%; in assay [3], 0%; in assay [4], 50%.

Turning to `Cc1cc(-c2cnc(NCc3cccnc3)nc2-c2ccc(C)o2)on1` [Compound 22], the pest or weed control at 500 g/ha in assay [1] amounted to 60%; in assay [2], 0%; in assay [3], 60%; in assay [4], 50%.

Take `Cc1cc(-c2cnc(NCc3ccccc3F)nc2C(F)(F)F)on1` [Compound 113]: the pest or weed control at 125 g/ha in assay [1] was determined as 30%; in assay [2], 0%; in assay [3] it was 0%; in assay [4] it was 20%.

For the compound `Cc1cc(-c2cnc(N3CCC(O)C(C)C3)nc2-c2ccc(C)o2)on1` (stereo not drawn) [Compound 36], the pest or weed control at 500 g/ha in assay [1] was found to be 30%; in assay [2], 0%; in assay [3], 0%; in assay [4] it was 30%.

As to `Cc1cc(-c2cnc(NC3CCc4sc(Cl)cc43)nc2C(C)C)on1` (stereo not drawn) [Compound 4], the pest or weed control at 125 g/ha in assay [1] was 95%; in assay [2], 0%; in assay [3] it was 98%; in assay [4] it was 50%.

For the compound `COCCNc1ncc(-c2cc(C)no2)c(-c2ccncc2)n1` [Compound 66], the pest or weed control at 500 g/ha in assay [1] was found to be 70%; in assay [2], 60%; in assay [3] it was 70%; in assay [4] it was 20%.

Turning to `CC(C)c1nc(NC2CCCC2)ncc1-c1cncs1` [Compound 124], the pest or weed control at 62 g/ha in assay [1] was 10%; in assay [2], 0%; in assay [3] it was 0%; in assay [4] it was 0%.

Turning to `CC(=O)N1CCN(c2ncc(-c3cc(C)no3)c(C3CC3)n2)CC1` [Compound 50], the pest or weed control at 500 g/ha in assay [1] worked out at 60%; in assay [2] it was 0%; in assay [3], 0%; in assay [4], 50%.
